Reference: ChEMBL document CHEMBL1134245, “Two novel and potent 3-[(o-methoxyphenyl)piperazinylethyl]-5-phenylthien” (Bioorg Med Chem Lett, 2001)

Columns and labels:
[1] = biological target: T1, Alpha-2A adrenergic receptor (Homo sapiens, UniProt P08913); test: Ancillary Binding affinity towards cloned human Alpha-2A adrenergic receptor
T1 sequence (P08913 whole entry): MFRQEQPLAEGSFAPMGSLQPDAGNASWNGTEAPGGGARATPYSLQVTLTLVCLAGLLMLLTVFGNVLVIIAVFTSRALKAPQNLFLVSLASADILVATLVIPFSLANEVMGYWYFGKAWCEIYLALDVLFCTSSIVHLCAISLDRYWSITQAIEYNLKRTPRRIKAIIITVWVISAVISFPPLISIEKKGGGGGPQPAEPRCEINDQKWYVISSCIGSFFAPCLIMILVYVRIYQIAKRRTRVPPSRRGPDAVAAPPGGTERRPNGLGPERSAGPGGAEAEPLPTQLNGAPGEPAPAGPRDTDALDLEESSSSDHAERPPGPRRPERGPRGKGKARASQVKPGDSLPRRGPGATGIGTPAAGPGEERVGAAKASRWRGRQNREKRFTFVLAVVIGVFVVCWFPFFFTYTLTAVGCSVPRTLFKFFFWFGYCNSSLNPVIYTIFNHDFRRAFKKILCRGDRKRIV

[2] = biological target: T2, Alpha-1B adrenergic receptor (Homo sapiens, UniProt P35368); test: Binding affinity towards human Alpha-1B adrenergic receptor
T2 sequence (P35368 whole entry): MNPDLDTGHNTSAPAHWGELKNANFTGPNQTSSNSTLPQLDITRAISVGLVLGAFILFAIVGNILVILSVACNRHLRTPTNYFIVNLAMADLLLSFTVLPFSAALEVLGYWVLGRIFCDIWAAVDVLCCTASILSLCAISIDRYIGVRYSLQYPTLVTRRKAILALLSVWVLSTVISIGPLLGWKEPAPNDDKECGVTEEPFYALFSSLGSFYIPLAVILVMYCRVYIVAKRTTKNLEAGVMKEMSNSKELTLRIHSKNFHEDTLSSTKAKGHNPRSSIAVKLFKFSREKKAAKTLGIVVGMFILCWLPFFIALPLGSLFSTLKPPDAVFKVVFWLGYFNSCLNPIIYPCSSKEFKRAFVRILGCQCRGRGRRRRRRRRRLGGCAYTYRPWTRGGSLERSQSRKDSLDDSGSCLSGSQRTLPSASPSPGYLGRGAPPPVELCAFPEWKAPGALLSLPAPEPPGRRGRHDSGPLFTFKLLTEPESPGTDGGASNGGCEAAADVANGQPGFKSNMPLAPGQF

[3] = Ancillary Binding affinity towards rat 5-hydroxytryptamine 2 receptor
[4] = biological target: D(2) dopamine receptor (Rattus norvegicus, UniProt P61169); test: Ancillary Binding affinity towards rat Dopamine receptor D2
[5] = biological target: T3, Alpha-2C adrenergic receptor (Homo sapiens, UniProt P18825); test: Ancillary Binding affinity to cloned human Alpha-2C adrenergic receptor
T3 sequence (P18825 whole entry): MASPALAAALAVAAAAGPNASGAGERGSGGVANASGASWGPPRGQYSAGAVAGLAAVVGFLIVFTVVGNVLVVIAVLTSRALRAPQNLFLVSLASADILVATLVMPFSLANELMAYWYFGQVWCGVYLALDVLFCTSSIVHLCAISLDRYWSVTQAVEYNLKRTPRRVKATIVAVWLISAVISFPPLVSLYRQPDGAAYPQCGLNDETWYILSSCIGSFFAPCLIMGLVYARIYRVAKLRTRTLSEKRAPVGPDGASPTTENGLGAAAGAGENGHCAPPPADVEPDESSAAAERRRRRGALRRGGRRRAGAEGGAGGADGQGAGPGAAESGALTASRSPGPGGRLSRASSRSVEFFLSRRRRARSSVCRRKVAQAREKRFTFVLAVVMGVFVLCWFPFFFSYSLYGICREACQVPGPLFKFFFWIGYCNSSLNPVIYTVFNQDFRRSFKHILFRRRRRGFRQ

[6] = biological target: T4, Alpha-1A adrenergic receptor (Bos taurus, UniProt P18130); test: Binding affinity towards bovine Alpha-1A adrenergic receptor
T4 sequence (P18130 whole entry): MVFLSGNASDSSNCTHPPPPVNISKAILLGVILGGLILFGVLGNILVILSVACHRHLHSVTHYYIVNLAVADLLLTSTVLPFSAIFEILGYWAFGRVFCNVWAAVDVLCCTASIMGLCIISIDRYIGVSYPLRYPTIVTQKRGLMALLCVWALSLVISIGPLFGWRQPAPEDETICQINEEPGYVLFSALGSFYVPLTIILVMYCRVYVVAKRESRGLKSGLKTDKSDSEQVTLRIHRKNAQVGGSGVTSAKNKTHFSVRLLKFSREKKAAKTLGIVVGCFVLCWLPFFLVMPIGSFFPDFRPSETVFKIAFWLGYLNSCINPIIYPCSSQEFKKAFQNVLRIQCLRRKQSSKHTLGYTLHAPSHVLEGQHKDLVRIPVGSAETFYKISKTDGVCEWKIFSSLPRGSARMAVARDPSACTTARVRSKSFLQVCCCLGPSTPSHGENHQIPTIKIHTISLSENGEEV

[7] = biological target: T5, Alpha-2B adrenergic receptor (Rattus norvegicus, UniProt P19328); test: Ancillary Binding affinity towards rat alpha-2B receptor
T5 sequence (P19328 whole entry): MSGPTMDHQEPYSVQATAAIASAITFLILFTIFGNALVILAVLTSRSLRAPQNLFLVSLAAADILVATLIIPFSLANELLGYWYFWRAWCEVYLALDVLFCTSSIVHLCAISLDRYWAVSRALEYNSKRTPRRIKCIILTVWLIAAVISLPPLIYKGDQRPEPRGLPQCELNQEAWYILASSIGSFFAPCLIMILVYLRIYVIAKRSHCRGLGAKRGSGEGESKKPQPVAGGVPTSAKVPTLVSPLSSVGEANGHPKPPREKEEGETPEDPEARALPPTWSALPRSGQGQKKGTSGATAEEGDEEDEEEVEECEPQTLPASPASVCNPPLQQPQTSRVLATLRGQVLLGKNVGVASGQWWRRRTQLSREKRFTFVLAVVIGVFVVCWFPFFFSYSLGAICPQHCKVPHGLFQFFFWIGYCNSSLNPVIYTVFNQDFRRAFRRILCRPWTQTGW

[8] = biological target: T6, Alpha-1A adrenergic receptor (Homo sapiens, UniProt P35348); test: Binding affinity for human Alpha-1A adrenergic receptor
T6 sequence (P35348 whole entry): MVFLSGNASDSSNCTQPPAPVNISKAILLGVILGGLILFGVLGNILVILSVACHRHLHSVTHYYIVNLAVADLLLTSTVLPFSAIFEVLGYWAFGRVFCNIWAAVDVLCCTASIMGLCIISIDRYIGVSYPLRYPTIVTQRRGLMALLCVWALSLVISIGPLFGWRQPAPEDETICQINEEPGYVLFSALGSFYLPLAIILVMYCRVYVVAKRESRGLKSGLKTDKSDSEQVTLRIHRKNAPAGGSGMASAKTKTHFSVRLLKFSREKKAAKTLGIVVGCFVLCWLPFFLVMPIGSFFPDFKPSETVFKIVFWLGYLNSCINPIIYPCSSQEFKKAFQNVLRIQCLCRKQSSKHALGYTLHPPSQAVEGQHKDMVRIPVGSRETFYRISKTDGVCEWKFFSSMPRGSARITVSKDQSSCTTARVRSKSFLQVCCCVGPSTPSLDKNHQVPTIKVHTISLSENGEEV

D(2) dopamine receptor, sequence (P61169 whole entry): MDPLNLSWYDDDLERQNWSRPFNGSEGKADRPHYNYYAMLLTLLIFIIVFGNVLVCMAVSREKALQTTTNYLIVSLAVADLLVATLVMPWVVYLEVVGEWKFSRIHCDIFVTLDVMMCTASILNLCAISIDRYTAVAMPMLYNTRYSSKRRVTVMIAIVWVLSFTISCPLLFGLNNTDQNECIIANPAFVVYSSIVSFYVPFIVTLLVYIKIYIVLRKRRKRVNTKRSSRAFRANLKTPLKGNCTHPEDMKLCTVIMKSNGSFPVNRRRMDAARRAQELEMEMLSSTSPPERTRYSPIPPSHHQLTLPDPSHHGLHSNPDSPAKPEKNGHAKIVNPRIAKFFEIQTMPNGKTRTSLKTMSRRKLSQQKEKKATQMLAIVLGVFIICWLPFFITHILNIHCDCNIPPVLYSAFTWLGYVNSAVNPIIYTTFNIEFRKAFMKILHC

Row | Structure (SMILES) | Ki [1] [nM] | Ki [2] [nM] | Ki [3] [nM] | Ki [4] [nM] | Ki [5] [nM] | Ki [6] [nM] | Ki [7] [nM] | Ki [8] [nM]
1 | COc1ccccc1N1CCN(CCn2c(=O)[nH]c3scc(-c4ccccc4)c3c2=O)CC1 [A-119637] | 77.8 | 4.66 | 137 | 50 | 74.7 | 0.274 | 71 | 2.63
2 | COc1ccccc1N1CCN(CCn2c(=O)[nH]c3scc(-c4cccc(C)c4)c3c2=O)CC1 [A-123189] | 82.5 | 9.09 | 2190 | 17 | 82 | 0.348 | 66.6 | 4.17
